Like-named read-outs stand apart in the source and are kept apart here. Each block holds one molecule with its values, some of them ahead of it.
Experiments:
[1] = Stability of the ginsenosides in human plasma (QC samples, LC-MS/MS method validation); assay type: in vitro ADME
Description: The LC-MS/MS method was validated to determine selectivity, lower limits of quantification (LLOQ), accuracy, precision, recovery, matrix effect, and stability, according to the guideline for validating the bioanalytical method. The selectivity of the method was evaluated by comparison of blank plasma from six different men to the corresponding spiked plasma sample at the level of LLOQ to investigate the potential interferences at the LC chromatographic conditions for ginsenoside analytes and IS. The signal-to-noise ratio (S/N) of the LLOQ sample was at least five times the response compared to the blank samples. Each calibration curve was constructed by plotting the peak area ratio (y) of the analyte to IS against the spiked concentrations (x) of each analyte. Linearity was assessed by weighted (1/x^2) least squares regression analysis. The LLOQ was defined as the lowest concentration on the calibration curve with an S/N ratio of 10, where the precision and accuracy bias were within ±20% by five replicate analyses. The intra- and interday precision and accuracy assessments were performed at four concentrations with five replicates on the same day and three consecutive days, respectively. The acceptance criterion recommended by the guideline of precision and the accuracy was ±15% of the nominal concentration. The recovery of the seven ginsenosides was determined at three QC levels with three replicates by comparing the peak areas of plasma extracts spiked with analytes before extraction with those of the postextraction spiked samples at the same concentration. The matrix effects were investigated by comparing the peak areas of the analytes dissolved in the pretreated blank plasma with the corresponding concentrations prepared in the reconstitution solution with three replicates. The stability of the analytes in human plasma was assessed by analyzing five replicates of plasma samples at low, medium, and high QC levels under four different conditions. Short-term stability was evaluated after the exposure of QC samples to room temperature for 19 h before processing and analysis. The freeze and thaw stability was tested after three repeated cycles of thawing at room temperature and freezing at approximately −70°C. The long-term stability was assessed after storage at approximately −70°C for 50 days. The post-preparative stability was examined after the exposure of processed samples at ambient temperature (stored in an HPLC autosampler) for 34 h.

[2] = set-up: method as in earlier work; conditions: after oral Korean Red ginseng extract, ref 25 (Kim et al.); cited from earlier work
[3] = Pharmacokinetics of ginsenosides in plasma after a single oral dose of RG or BRG capsules in healthy Korean men (LC-MS/MS); assay type: in vivo, human; conditions: for AUC(0-t): read-out: AUC(0–t)
Source text: This study was designed as a randomized, open-label, single-dose, crossover study with washout every 1 week to evaluate the pharmacokinetics and safety of ginsenosides. Subjects were randomly assigned to either the RG or BRG group during the first period of the study (Figure 2). After 1 week of the washout period, other products that were not received in the first period were provided. All enrolled subjects were hospitalized at Bestian Clinical Trial Center on the day before taking RG or BRG. Subjects were provided regular meals, and additional food intake was restricted after the meal. The next day, the subjects who had maintained the fasting state for 10 h took the capsules corresponding to 5 g of RG and BRG orally. Water was restricted for 1 h before and after intake, and food intake was restricted for 4 h after administration. After 4 h, all subjects received a standardized meal. In addition, lying down or sleeping was prohibited for 8 h after oral administration. Blood samples (5 mL) were collected before dosing and at each time point (0, 0.5, 1, 2, 4, 6, 8, 10, 12, and 24 h) after dosing. All blood samples were collected in heparin-treated tubes. The blood samples were promptly centrifuged at 3,000 rpm for 10 min at 4°C, and the plasma samples obtained were stored in a deep freezer at −70 ± 10°C until assay.
All analyses were performed using an Agilent 1200 series HPLC system (Agilent) with a Luna Phenyl-Hexyl column (2.0 × 150 mm, 5 μm; Phenomenex, CA, USA). The mobile phase comprised water (solvent A) and acetonitrile (solvent B) containing 0.1% formic acid. The flow rate of the mobile phase was 0.25–0.35 mL/min. The initial condition of 70% solvent A was set to 5% solvent A over 15 min. The content of ginsenosides in human plasma was measured using an API 5500 mass spectrometer (AB Sciex, Foster City, CA, USA) capable of multiple reaction monitoring (MRM). The parent-daughter ion pairs monitored were 845.5 ⟶ 799.6 for Rg1, 1153.6 ⟶ 1107.5 for Rb1, 829.4 ⟶ 783.5 for Rg3, and F2, 811.4 ⟶ 161.0 for Rg5 and Rk1, 667.4 ⟶ 161.0 for CK, and 825.4 ⟶ 779.3 for digoxin as an IS in the negative ion mode. Nitrogen gas was used in the nebulizer and the collision cell. The ion spray voltage was set to 5500 V.
Standard plasma samples were prepared such that each ginsenoside was in the concentration range of 0.5–100 ng/mL; 10 μL of a standard mixture of six kinds of ginsenosides (Rg1, Rb1, Rg5 + Rk1, F2, and CK) was added to 90 μL of blank human plasma. Rg3 was prepared in the concentration range of 0.2–40 ng/mL. Standard plasma samples (100 μL) were added to 200 μL of methanol containing 50 ng/mL digoxin, an IS. These were mixed for 1 min and then centrifuged at 12,000 rpm for 5 min at 4°C. Then, 100 μL of the supernatant was transferred to an LC vial, and 10 μL was injected into the LC-MS/MS system. Plasma samples stored at −70°C were thawed at room temperature. Samples for LC-MS/MS analysis were pretreated in the same manner as standard plasma samples.
Plasma concentrations of seven ginsenosides were calculated from calibration curves by calculating the ratio of the peak area of the test substance to the peak area of the IS. The following pharmacokinetic parameters were measured using Phoenix WinNonlin 6.3 (Pharsight Co, CA, USA): time to reach maximum observed plasma drug concentration (Tmax), maximum observed plasma drug concentration (Cmax), area under the plasma drug concentration-time curve from 0 h to the final measured time (AUC(0–t)), area under the plasma drug concentration–time curve from 0 h to infinity (AUC(0–∞)), and terminal elimination half-life (t1/2).

Freeze-thaw stability, concentration found ([1]; human plasma, 3 cycles, 1.5 ng/mL): 98.65 ± 0.66%
Freeze-thaw stability, concentration found ([1]; human plasma, 3 cycles, 80 ng/mL): 100.70 ± 2.36%
Short-term stability, concentration found ([1]; human plasma, 19 h at room temperature, 1.5 ng/mL): 98.19 ± 1.40%
Short-term stability, concentration found ([1]; human plasma, 19 h at room temperature, 80 ng/mL): 96.93 ± 5.41%
Long-term stability, concentration found ([1]; human plasma, 50 days at -70℃, 1.5 ng/mL): 102.01 ± 1.78%
Long-term stability, concentration found ([1]; human plasma, 50 days at -70℃, 80 ng/mL): 105.06 ± 2.73%
Autosampler stability, concentration found ([1]; processed plasma samples, 34 h at ambient temperature, 1.5 ng/mL): 97.98 ± 3.55%
Autosampler stability, concentration found ([1]; processed plasma samples, 34 h at ambient temperature, 80 ng/mL): 100.35 ± 5.32%
detection in plasma at the initial time point (0 h) of the second treatment period ([3]; after 1 week washout): did not detect
Cmax ([3]; male, human, in vivo, po, C max): 4.04 ± 1.71 ng/mL
half-life ([3]; male, human, plasma, oral, 5 g, range over RG and BRG groups, read-out: t1/2): 38 to 46 h
AUC(0-t) ([3]; male, human, plasma, po, 5 g, plasma, after single oral 5 g BRG, n = 13, mean ± SD): 56.9 ± 19.6 ng·h/mL
AUC(0-inf) ([3]; male, human, plasma, po, 5 g, plasma, after single oral 5 g BRG, n = 13, mean ± SD, read-out: AUC(0–∞)): 182 ± 94.4 ng·h/mL
Cmax ([3]; male, human, plasma, po, 5 g, plasma, after single oral 5 g BRG, n = 13, mean ± SD, read-out: C max): 3.19 ± 1.13 ng/mL
half-life ([3]; male, human, plasma, po, 5 g, plasma, after single oral 5 g BRG, n = 13, mean ± SD, read-out: T 1/2 (converted)): 38.1 ± 13.5 h
Tmax ([3]; male, human, plasma, po, 5 g, plasma, after single oral 5 g BRG, n = 13, mean ± SD, read-out: T max): 6.92 ± 1.55 h
AUC(0-t) ([3]; male, human, plasma, po, 5 g, plasma, after single oral 5 g RG, n = 13, mean ± SD): 73.2 ± 29.8 ng·h/mL
AUC(0-inf) ([3]; male, human, plasma, po, 5 g, plasma, after single oral 5 g RG, n = 13, mean ± SD, read-out: AUC(0–∞)): 257 ± 115 ng·h/mL
half-life ([3]; male, human, plasma, po, 5 g, plasma, after single oral 5 g RG, n = 13, mean ± SD, read-out: T 1/2 (converted)): 45.9 ± 21.9 h
Tmax ([3]; male, human, plasma, po, 5 g, plasma, after single oral 5 g RG, n = 13, mean ± SD, read-out: T max): 7.23 ± 1.92 h
SMILES: CC(C)=CCC[C@](C)(O[C@@H]1O[C@H](CO[C@@H]2O[C@H](CO)[C@@H](O)[C@H](O)[C@H]2O)[C@@H](O)[C@H](O)[C@H]1O)[C@H]1CC[C@]2(C)[C@@H]1[C@H](O)C[C@@H]1[C@@]3(C)CC[C@H](O[C@@H]4O[C@H](CO)[C@@H](O)[C@H](O)[C@H]4O[C@@H]4O[C@H](CO)[C@@H](O)[C@H](O)[C@H]4O)C(C)(C)[C@@H]3CC[C@]12C [Rb1, ginsenoside Rb1]
Cmax [2]: 3.94 ± 1.97 ng/mL

Freeze-thaw stability, concentration found ([1]; human, 1.5 ng/mL): 104.03 ± 7.57%
Freeze-thaw stability, concentration found ([1]; human, 80 ng/mL): 96.17 ± 2.51%
Short-term stability, concentration found ([1]; human, 19 h, 1.5 ng/mL): 99.90 ± 4.38%
Short-term stability, concentration found ([1]; human, 19 h, 80 ng/mL): 98.69 ± 2.03%
Autosampler stability, concentration found ([1]; human, 34 h, 1.5 ng/mL): 101.24 ± 4.59%
Autosampler stability, concentration found ([1]; human, 34 h, 80 ng/mL): 99.56 ± 1.44%
Long-term stability, concentration found ([1]; human, 50 days, 1.5 ng/mL): 103.25 ± 4.03%
Long-term stability, concentration found ([1]; human, 50 days, 80 ng/mL): 103.02 ± 5.53%
detection in plasma at the initial time point (0 h) of the second treatment period ([3]; in vivo): did not detect
AUC(0–t) of CK, times higher than that of F2 ([3]; male, human, in vivo): > 5.03 times
mean Tmax in the RG group relative to the BRG group (times lower) ([3]; male, human, in vivo): approximately 1.71 times
AUC(0–t) in the BRG group, times higher than in the RG group ([3]; male, human, in vivo, po): > 28.0 times
AUC(0–∞) ([3]; male, human, in vivo, po): 3.72 ± 7.91 ng·h/mL
T 1/2 ([3]; male, human, in vivo, po): 1.36 ± 2.61 h
T max ([3]; male, human, in vivo, po): 4.77 ± 3.61 h
AUC(0-inf) ([3]; male, human, in vivo, po, AUC(0–∞)): 457 ± 259 ng·h/mL
half-life ([3]; male, human, in vivo, po, T 1/2): 7.72 ± 4.66 h
Tmax ([3]; male, human, in vivo, po, T max): 8.15 ± 10.2 h
SMILES: CC(C)=CCCC(C)(OC1OC(CO)C(O)C(O)C1O)C1CCC2(C)C1C(O)CC1C3(C)CCC(O)C(C)(C)C3CCC12C (centres unmarked) [CK, compound K]
Cmax [2]: 8.35 ± 1.97 ng/mL
half-life of CK compared with that of Rb1 [2]: seven times shorter

From article PMC8803428, “Pharmacokinetics of Ginsenoside Rb1, Rg3, Rk1, Rg5, F2, and Compound K from Red Ginseng Extract in Healthy Korean Volunteers” (Evidence-based Complementary and Alternative Medicine : eCAM, 2022)
